Assay results published in patent publication US20120010229A1, “THERAPEUTIC REGIMENS FOR HEDGEHOG-ASSOCIATED CANCERS” (priority 2010, published 2012).

Columns and labels:
D473H SMO mutant = target: T1, D473H SMO mutant (Homo sapiens, UniProt Q99835, D473H); experiment: Gli-luciferase reporter assay, C3H10T1/2 cells transfected with D473H SMO; assay type: cell-based, mouse
T1 construct: expressed in transfected cells; host or cells: C3H10T1/2 cells (ATCC CCL-226), mouse
Description: Wild type human SMO was subcloned into pcDNA3.1 from an expression construct in pCMV6 (Origene #SC122724). D473H SMO was then generated by site-directed mutagenesis using the Stratagene QuikChange kit (Agilent #200519) and sequence verified.
Gli-Luciferase reporter assays were performed as described. (Yauch et al. (2009) Science 326: 572-574) Briefly, C3H10 T1/2 cells (ATCC, #CCL-226) were plated in six-well plates at 1×10 to 5th cells per well in BME (Gibco #21010) with 10% FBS (Hyclone #SH30070.03), 2 mM Glutamine (Gibco #25030) and 50 units penicillin/50 ug streptomycin (Gibco #15140). The next morning, cells were transfected with 400 ng SMO expression construct, 400 ng 8× Gli-Luc, and 200 ng pRL-TK per well with GeneJuice transfection reagent (Novagen #70967). Cells in each well were lifted six hours later and replated into four wells of a 12 well plate and allowed to attach overnight. Medium was then changed to low (0.5%) serum and compounds were added in quadruplicate in a range of concentrations. After a 48 hour incubation, firefly and renilla luciferase were assayed using the Promega Dual-Glo Luciferase Assay System (Promega #E2940) and ratios were used to determine percent of control using Prism graphing software.

[1] = tested on: LX22 primary small cell lung tumor; experiment: LX22 primary small cell lung cancer xenograft, post etoposide/carboplatin; assay type: in vivo, mice
Description: FIG. 1 is a series of line graphs showing the effect in tumor size (mm^3) as a function of days of treatment of mice having an LX22 primary small cell lung tumor with IPI-926 alone (“IPI-926”), etoposide/carboplatin followed by vehicle control (“E/P→Vehicle”), E/P followed by IPI-926 (“E/P→IPI-926”) and vehicle control. Mice were treated for 5 weeks total with IPI-926 follow-up treatment at 40 mg/kg PO QD.
Briefly, LX22 primary small cell lung model was treated with 1.5 cycles of etoposide/carboplatin (E/P). Administration of IPI-926 was initiated 24 hours after the last dose of chemotherapy. In the normal course of these studies, IPI-926 was administered […].
The effect of delaying the onset of IPI-926 administration following chemotherapy was further characterized. […] FIG. 2 is a linear graph depicting the effect in tumor size as a function of time of chemotherapy treatment and following with IPI-926 treatment on day 5 (D5) and day 15 (D15) following chemotherapy treatment. Thus, a narrow window of intervention is necessary to maximize the beneficial effects of IPI-926 in tumor inhibition following chemotherapy.

H1650 xenograft = experiment: H1650 mutant EGFR non-small cell lung cancer xenograft, post Gefitinib; assay type: in vivo
Description: The efficacy of IPI-926 was evaluated when applied as a maintenance therapy following treatment of a xenograft non-small cell lung cancer model with a tyrosine kinase inhibitor. […] Sonic hedgehog ligand is detected by immunohistochemical staining (IHC) of sections of non-small cell lung cancer (FIG. 8A).

Gli1 = Gli1 mRNA by RT-PCR in Ptc^C/C tumors; assay type: in vivo, mouse; conditions: for suppression of Gli1 levels vs vehicle: daily 20 mg/kg/dose; for reduction in Gli1 mRNA levels: single dose
Description: Pharmacodynamic activity of IPI-926 in Ptc^C/C tumors was confirmed by analysis of Gli1 mRNA by RT-PCR. Mice were treated daily with 20 mg/kg/dose IPI-926 for 2 days, 2 weeks or 6 weeks and tumor tissue isolated and snap frozen 24 hours after the last dose. Total RNA was extracted using the Qiagen RNeasy Plus Kit and converted to cDNA using the Taqman Reverse Transcription kit (ABI). Quantitative Real Time PCR was set up using Taqman Master Mix and run on the Applied Biosystems 7300HT Real-Time PCR (384-well qPCR) System. Taqman primers for mouse Gli1 and Gapdh controls were used (ABI). Data was analyzed using SDS2.3 software (ABI). All conditions were run in triplicate and normalized to mouse Gapdh controls. Expression of IPI-926 treated (n=3 per time point) samples were normalized to vehicle control (n=3 per time point) samples.
In initial studies in the Ptc^C/C mice intracranial pressures were sufficiently high in some mice that brainstem herniation into the spinal canal and subsequent death occurred by tipping the head back for gavage feeding. Pharmacodynamic studies were conducted with intraperitoneal (IP) drug injection as well as oral gavage to see whether the IP route offered a safe and effective alternative to gavage drug administration. Both oral and IP routes induced approximately 90% reduction in Gli1 mRNA levels (FIG. 14), so IP administration was used for all subsequent studies.

[2] = mouse, in vivo
Description: IPI-926 drug levels in tumor and brain samples were determined as described previously (Olive et al., (2009) Science 324: 1457-1461). Briefly, samples were homogenized in 4 volumes of CAN:PBS buffer and homogenized using a Geno/Grinder from SPEX CertiPrep (Metuchen, N.J.) for 2 minutes. Homogenates were then filtered using […] low binding hydrophilic multiscreen solvinert late (Millipore) and collected in a 96-well plate. The tissue filtrates were diluted 1:1 and IPI-926 levels were determined. Sample analysis was performed on an Agilent 1200 from Agilent Technologies (Santa Clara, Calif.) coupled with an API-4000 mass spectrometer from Applied Biosystems (Foster City, Calif.) for detection. Data were acquired and processed using the software Analyst 1.4.1 (Applied Biosystems). Sample concentrations, as measured by their peak area ratios (analyte divided by internal standard), were determined from the calibration curves.

Pgp = Pgp (Homo sapiens, UniProt P08183); experiment: Pgp substrate status; assay type: in vitro ADME
L3.6pl xenografts = conditions: with paclitaxel bonded to albumin (Abraxane)
[3] = tested on: Hedgehog pathway in stromal cells; conditions: after single administration; cited from earlier work

Chain of Pgp (P08183 whole entry): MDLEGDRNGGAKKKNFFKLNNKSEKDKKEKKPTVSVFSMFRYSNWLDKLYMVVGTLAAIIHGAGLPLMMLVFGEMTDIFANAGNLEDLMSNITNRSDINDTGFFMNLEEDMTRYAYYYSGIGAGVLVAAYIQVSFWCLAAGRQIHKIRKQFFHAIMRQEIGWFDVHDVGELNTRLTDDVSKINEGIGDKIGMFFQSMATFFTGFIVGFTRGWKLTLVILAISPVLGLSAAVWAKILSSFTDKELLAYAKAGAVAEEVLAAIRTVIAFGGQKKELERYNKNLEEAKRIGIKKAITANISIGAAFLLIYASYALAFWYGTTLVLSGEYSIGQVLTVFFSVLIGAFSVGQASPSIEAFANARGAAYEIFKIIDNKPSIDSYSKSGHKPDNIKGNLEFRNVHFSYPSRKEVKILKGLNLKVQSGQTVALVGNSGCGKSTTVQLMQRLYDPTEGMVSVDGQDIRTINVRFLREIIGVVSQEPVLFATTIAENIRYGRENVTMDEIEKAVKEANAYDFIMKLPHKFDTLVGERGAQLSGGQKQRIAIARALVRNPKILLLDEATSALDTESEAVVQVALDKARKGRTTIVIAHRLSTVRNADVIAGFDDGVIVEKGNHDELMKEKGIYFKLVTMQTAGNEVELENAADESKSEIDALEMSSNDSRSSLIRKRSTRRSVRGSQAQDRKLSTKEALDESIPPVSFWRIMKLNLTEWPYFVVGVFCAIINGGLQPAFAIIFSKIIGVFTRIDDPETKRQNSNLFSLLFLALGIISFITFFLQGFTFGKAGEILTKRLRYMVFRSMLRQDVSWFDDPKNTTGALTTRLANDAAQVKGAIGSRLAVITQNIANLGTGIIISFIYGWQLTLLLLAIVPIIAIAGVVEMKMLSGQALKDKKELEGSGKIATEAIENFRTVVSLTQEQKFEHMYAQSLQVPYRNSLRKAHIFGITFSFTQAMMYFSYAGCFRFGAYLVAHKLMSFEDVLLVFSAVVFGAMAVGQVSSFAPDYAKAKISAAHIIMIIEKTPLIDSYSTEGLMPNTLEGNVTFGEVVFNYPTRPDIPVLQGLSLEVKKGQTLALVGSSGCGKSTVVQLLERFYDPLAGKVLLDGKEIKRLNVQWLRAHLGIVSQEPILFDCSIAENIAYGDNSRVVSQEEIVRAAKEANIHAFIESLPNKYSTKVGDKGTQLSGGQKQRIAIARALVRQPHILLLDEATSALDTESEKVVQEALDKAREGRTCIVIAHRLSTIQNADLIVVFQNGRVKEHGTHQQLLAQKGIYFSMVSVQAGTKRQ
T1 sequence (Q99835 28-787 D473H): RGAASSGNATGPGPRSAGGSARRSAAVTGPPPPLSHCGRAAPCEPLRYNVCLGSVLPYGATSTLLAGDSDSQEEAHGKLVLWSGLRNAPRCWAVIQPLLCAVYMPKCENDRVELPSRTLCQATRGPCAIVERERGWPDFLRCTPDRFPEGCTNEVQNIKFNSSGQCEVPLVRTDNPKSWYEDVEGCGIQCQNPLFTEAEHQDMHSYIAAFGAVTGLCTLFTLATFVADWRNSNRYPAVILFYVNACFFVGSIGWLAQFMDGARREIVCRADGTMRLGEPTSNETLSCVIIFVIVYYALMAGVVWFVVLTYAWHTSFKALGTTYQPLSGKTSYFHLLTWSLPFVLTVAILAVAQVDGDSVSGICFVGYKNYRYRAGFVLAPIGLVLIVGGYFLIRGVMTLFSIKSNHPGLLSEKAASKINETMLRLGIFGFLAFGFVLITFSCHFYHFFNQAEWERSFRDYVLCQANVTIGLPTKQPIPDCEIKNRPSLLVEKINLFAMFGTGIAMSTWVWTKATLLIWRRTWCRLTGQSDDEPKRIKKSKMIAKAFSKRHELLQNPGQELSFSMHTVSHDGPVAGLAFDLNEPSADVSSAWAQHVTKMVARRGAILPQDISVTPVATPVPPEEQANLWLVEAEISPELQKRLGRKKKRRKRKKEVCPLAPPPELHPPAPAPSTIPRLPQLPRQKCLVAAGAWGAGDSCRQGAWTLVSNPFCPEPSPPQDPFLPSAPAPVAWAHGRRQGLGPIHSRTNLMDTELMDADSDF

## CC1=C2C[C@H]3[C@@H](CC[C@@H]4C[C@H](NS(C)(=O)=O)CC[C@@]43C)[C@@H]2CC[C@@]2(C1)O[C@@H]1C[C@H](C)CN[C@H]1[C@H]2C [IPI-926]
D473H SMO mutant
  IC50: 244 nM
[1]; E/P then IPI-926 40 mg/kg PO QD, started 24 hours after last chemotherapy dose
  tumor re-growth following cyto-reductive chemotherapy: inhibitory effect on the re-growth of tumors
[1]; IPI-926 administration delayed by 5 or 14 days after chemotherapy
  tumor growth inhibition with delayed onset of administration: loss of the IPI-926 effect in tumor growth inhibition
[1]; tumors after chemotherapy, vs vehicle-treated
  expression of stromal marker murine Gli-1: inhibited
H1650 xenograft; Gefitinib 40 mg/kg orally one week followed by IPI-926 once a day for three weeks
  tumor volume after cessation of Gefitinib: prolonged duration of the tumor inhibition
H1650 xenograft; IPI-926 in combination with Gefitinib
  mGLI-1 mRNA expression in lung tumor samples: inhibit mGLI-1 mRNA expression
Gli1; after 2 weeks of therapy
  suppression of Gli1 levels vs vehicle: 60%
Gli1; after 6 weeks of therapy
  suppression of Gli1 levels vs vehicle: 30%
Gli1; after 2 days of therapy
  suppression of Gli1 levels vs vehicle: 90%
Gli1; intraperitoneal injection
  reduction in Gli1 mRNA levels: approximately 90%
Gli1; oral gavage
  reduction in Gli1 mRNA levels: approximately 90%
[2]
  blood brain barrier penetration: crossed the blood brain barrier
Pgp
  Pgp substrate: Pgp substrate
L3.6pl xenografts
  effect on therapeutic agent effect of Abraxane: enhances the therapeutic agent effect
[3]
  Hedgehog pathway inhibition in stromal cells: rapid and sustained Hedgehog pathway inhibition
